Measured values published in US4868159A, “Novel substances KS-501 and KS-502 and process for their preparation” (Kyowa Hakko Kogyo Co., Ltd., priority 1987, dated 1989).
Values after ≈ are worked out from the molar mass of the structure shown. “Also recorded” adds a separate entry of the source. Read-outs that look alike come from different tables or passages of the source.

Key:
rabbit platelets [1] = test: Effect on serotonin release from rabbit platelets; assay type: cell-based, white rabbit; settings: for inhibition at 10 µg/mL: 10.0 μg/ml; for inhibition at 30 µg/mL: 30.0 μg/ml
Experimental: Effect on serotonin release from rabbit platelets
9.25 vol of blood was sampled from the carotid artery of a white rabbit and placed in a FALCON 2070 tube (product of Falcon, Bector Dickinson) containing 0.75 vol of 77 mM ethylenediaminetetraacetic acid (EDTA). The thus obtained blood was centrifuged at 200 x g for 15 minutes to obtain platelet rich plasma (referred to as PRP hereinafter). This PRP was incubated with [2-^14 C]-serotonin (2 μCi/100 ml PRP) at 37° C. for an hour to incorporate [2-^14 C]-serotonin therein. Then, the PRP was centrifuged at 650 x g for 15 minutes to obtain platelet precipitates. After washing with Tris-buffered physiological saline (pH 7.4, containing 1 mM EDTA), the platelet precipitates were suspended in CA^++ -free Tyrode's soluton to reach a final density of 10^9 cells/ml.
To 0.475 ml of the thus prepared [2-^14 C]-serotoninlabeled platelet suspension was added 5 μl of a solution of the test compound. After incubation at 37° C. for 3 minutes, platelet activating factor (final concentration: 10^-9 M) was added as a stimulant, followed by incubation for further 3 minutes. 0.3 ml of the reaction solution was immediately taken and poured into 30 µl of ice-cold 0.1 mM formaldehyde5mM EDTA solution to terminate the reaction. After centrifugation at 3,000 rpm at 0° C. for 10 minutes, 250 μl of the supernatant was taken and the radioactivity was measured with a liquid scintillation counter.
*The rate of inhibition of serotonin release was calculated according to
the following equation.

rabbit platelets [2] = test: Effect on platelet aggregation of rabbit platelets; assay type: cell-based, white rabbit; settings: for IC50: Oryctolagus cuniculus, Platelet, 37° C., read-out: IC50 (concentration of the test compound showing 50% inhibition), platelet aggregation
Experimental: Effect on platelet aggreation of rabbit platelets
8.5 vol of blood was sampled from the carotid artery of a white rabbit and placed in a FALCON 2070 tube (product of Falcon, Bector Dickinson) containing 1.5 vol of citrate-dextrose soluton (71 mM citric acid, 85 mM sodium citrate and 111 mM dextrose). The thus obtained blood was centrifuged at 200×g for 15 minutes to obtain PRP. This PRP was centrifuged at 650×g for 10 minutes to obtain platelet precipitates. After washing with Ca^++ -free Tyrode's solution containing 2 mM ethyleneglycol bis(2-aminoethylether) tetraacetic acid (EGTA), the platelet precipitates were again centrifuged at 650 ×g for 10 minutes and washed. The thus obtained platelet precipitates were suspended in Ca^++ -free Tyrode's solution containing 0.25% bovine serum albumin to reach a density of 5×10^8 cells/ml. After the washed platelet suspension was allowed to stand at room temperature for about 30 minutes, 1 mM CaCl2 or 1 mM EGTA was added thereto and the mixture was allowed to stand for further 30 minutes. Then, platelet aggregation was measured.
The aggregation of platelets was determined using an aggregometer, AGGRETEC TE-500 (product of Erma Optical Co., Ltd.) to which the Born method was applied.
First, 10 μl of a test compound soluton was added to 0.2 ml of the washed platelet suspension, while stirring at 1,000 rmp and at 37° C. After incubation at 37° C. for 3 minutes, 10 μl of thrombin (final concentration: 0.05 U/ml) or platelet activating factor (final concentration: 10^-10 M) was added as a stimultant to initiate the reaction. The rate of inhibition of platelet aggregation of the test compound was calculated from the maximum aggregation rate obtained by the use of the test compound and the maximum aggregation rate obtained by the use of only the solvent used for dissolving the test compound, according to the following equation. [formula] A : Maximum aggregation rate of the solvent alone B : Maximum aggregation rate of the test compound
*Concentration of the test compound showing 50% inhibition.

Solubility = assay type: physicochemical
[3] = Oryctolagus cuniculus, stimulant platelet activating factor 10^-9 M, 37° C., read-out: Rate of inhibition of serotonin release
[4] = hexane, carbon tetrachloride, benzene, neutral water, acidic water

| Compound | Inhibition of serotonin release from platelets (in words) (rabbit platelets [1]) | inhibition at 3 µg/mL (rabbit platelets [1]; Oryctolagus cuniculus, 3.0 μg/ml, stimulant platelet activating factor 10^-9 M, 37° C., read-out: Rate of inhibition of serotonin release) | inhibition at 10 µg/mL (rabbit platelets [1]; [3]) | inhibition at 30 µg/mL (rabbit platelets [1]; [3]) | Inhibition of platelet aggregation (in words) (rabbit platelets [2]) | IC50 (rabbit platelets [2]; stimulant platelet activating factor, final concentration 10^-10 M) | IC50 (rabbit platelets [2]; stimulant thrombin, final concentration 0.05 U/ml) | Solubility (Solubility; KS-501: chloroform, ethyl acetate, acetonitrile, methanol, n-butanol, acetone, tetrahydrofuran, dioxane, dimethylsulfoxide, pyridine, monoethanolamine, acetic acid, alkaline water) | Solubility (Solubility; [4]) | inhibition at 50 µg/mL (rabbit platelets [1]; Oryctolagus cuniculus, 50.0 μg/ml, stimulant platelet activating factor 10^-9 M, 37° C., read-out: Rate of inhibition of serotonin release) | Solubility (Solubility; KS-502: chloroform, ethyl acetate, acetonitrile) |
| --- | --- | --- | --- | --- | --- | --- | --- | --- | --- | --- | --- |
| CCCCCCCc1cc(O)cc(OC(=O)c2c(CCCCCCC)cc(O)cc2OC2OC(C(O)CO)C(O)C2O)c1 (stereo not drawn) [KS-501] | inhibitory activity on serotonin release from platelets; also recorded: inhibited serotonin release from rabbit platelets, depending on the concentration | 10.2% | 27.1% | 66.4% | inhibitory activity on platelet aggregation; also recorded: inhibited platelet aggregation stimulated with thrombin and platelet activating factor | 38 µg/mL (≈ 62.8 µM) | 57 µg/mL (≈ 94.3 µM) | Readily soluble | Insoluble |  |  |
| CCCCCCCc1cc(OC(=O)c2c(CCCCCCC)cc(O)cc2OC2OC(C(O)CO)C(O)C2O)cc(O)c1C(=O)O (stereo not drawn) [KS-502] | inhibitory activity on serotonin release from platelets; also recorded: inhibited serotonin release from rabbit platelets, depending on the concentration |  | 2.7% | 28.9% |  |  |  |  | Insoluble | 51.4% | Soluble |
